Entries after “also recorded” stand apart in the source; their conditions may differ. Where no end group is shown, it is not given here.
Columns and labels:
Assay type in all cases: cell-based
[1] = test system: MSC currents in normal rat kidney cells; experiment: Outside-out patch clamp of mechanosensitive channel currents in normal rat kidney cells; details: 5 μM
Experimental: NRK cell culture: Normal rat kidney cells (CCA identifier is 49F) at passages 20–25, were maintained in DMEM, 5% fetal bovine serum and 1%
Penicillin/Streptomycin. Cells were plated onto poly-L-lysine coated cover-slips, and used in experiments between 2 and 6 days after passage.
Electrophysiology: An Axopatch 200B (Axon Instruments, California) was used for patch clamping, while experimental protocols and data acquisition were controlled by Axon Instruments pClamp8 software via a Digidata 1322A acquisition system. Currents were sampled at 10 KHz and low-pass filtered at 2 KHz through the 4 pole Bessel filter on the Axopatch 200B. All potentials are defined with respect to the extracellular surface. Electrodes were pulled on a Model PC-84 pipette puller (Brown-Flaming Instruments, California), painted with Sylgard 184 (Dow Corning Corp. Midland Mich.) and fire polished. Electrodes were filled with KCl saline (KCl 140 mM, EGTA 5 mM, MgSO4 2 mM, Hepes 10 mM, pH 7.3) and had resistances ranging from 10–20 MΩ. Bath saline consisted of NaCl—140 mM, KCl—5 mM, CaCl2—2 mM, MgSO4—0.5 mM, glucose—6 mM and Hepes—10 mM, pH 7.3. Pressure and suction were applied to the pipette by a HSPC-1 pressure clamp (ALA Scientific Instruments, New York) controlled by the pClamp software. Perfusion of toxin samples was performed by a pressurized local perfusion system BPS-8 (ALA scientific instruments, NY) with 8 separate channels. Off-line data analysis was performed with Clampfit and Origin 6.1 software.

[2] = test system: whole-cell swelling-activated currents in adult rat astrocytes; experiment: Whole-cell (Nystatin perforated patch) currents in adult rat astrocytes, isotonic and hypotonic swelling
Experimental: It is considered that part of the swelling activated currents are attributable to SACs. To illustrate this embodiment, adult rat astrocytes were cultured as described above. Whole cell current was measured by the Nystatin perforated patch. Bath saline was the same as in Example 2. Pipette saline consisted of: KCl 80 mM, K2SO4 30 mM, NaCl 10 mM, MgSO4 3 mM, CaCl20.13 mM, EGTA 0.23 mM and Hepes 10 mM, pH 7.3. Nystatin was dissolved in pipette saline to a final concentration of […]. After patch formation, access resistance was allowed to drop to ˜15 MW (uncompensated), after which the series resistance compensation was set at ˜65%, and prediction was set to ˜75%. Whole cell capacitance measurements ranged from ˜25–50 pF. Whole cell currents were monitored by either a voltage step protocol shown in FIG. 7, or by 600 ms voltage ramps. During hypotonic swelling the cell was perfused initially with isotonic saline (bath saline with 160 mM mannitol replacing 80 mM NaCl) before switching to hypotonic saline (isotonic saline minus 140 mM mannitol). The BPS-8 perfusion system was used to rapidly (<200 ms) change the bathing solution. Peak currents were measured at 3–5 ms into voltage steps.

[3] = test system: stretch-activated channels (SACs); experiment: Outside-out patch clamp of stretch-activated channels in adult rat astrocytes
Experimental: This embodiment describes the effect of the peptide GsMTx-4 variant (SEQ ID NO:1) on SACs. To illustrate this, adult rat astrocytes which are known to have SACs, were used. Adult rat astrocytes were cultured according to standard methods. Briefly, activated adult astrocytes isolated from gelatin-sponge implants from adult Sprague-Dawley rat brains obtained according to the method of Langan et al. (1995, Glia, 14:174–184) were used at passage numbers 2–4. Astrocytes were maintained in DMEM, 10% fetal bovine serum and 1% Penicillin/Streptomycin and were used in experiments between 2 and 5 days after passage. Cells between passage 4 and 35 expressed SACs with the same properties Both stellate process bearing cells and flat polygonal (fibroblast-like) cells were used.
The cultured astrocytes were used for single channel and whole cell recorndings. For single channel patch clamp, patch voltage was controlled by an Axopatch 200B (Axon Instruments, Calif.) and currents were recorded directly onto computer disk via a Labmaster DMA Ver. B (Scientific Instruments, Calif.) board controlled by pClamp6-Clampex acquisition software (Axon Instruments, California). Currents were sampled at 10 KHz and low-pass filtered at 2 KHz through the 4 pole Bessel filter on the Axopatch 200B. Experimental voltage protocols were controlled by pClamp6-Clampex. All potentials are defined with respect to the extracellular surface.
Electrodes were pulled on a Model PC-84 pipette puller (Brown-Flaming Instruments, Calif.), painted with Sylgard 184 (Dow Corning Corp. Midland Mich.) and fire polished. Electrodes were filled with KCl saline (KCl 140 mM, EGTA 5 mM, MgSO4 2 mM, Hepes 10 mM, pH 7.3) and had resistances ranging from 3–8 MWBath saline consisted of NaCl 140 mM, KCl 5 mM, MgSO4 1 mM, CaCl2 1 mM, glucose 6 mM and Hepes 10 mM, pH 7.3.
Pressure and suction were applied to the pipette by a pressure clamp. Pressure values represent pressure in the pipette, i.e., the intracellular side of the membrane in outside-out patches. Suction applied to a cell-attached patch has the same sign as pressure applied to an outside-out patch. The rise time of pressure changes at the tip were determined by monitoring the rate of current change when pressure steps were applied to an electrode containing 150 mM KCl solution and placed in a water bath. The t10-90 was ˜5 ms as determined by exponential fits to the current decay. Perfusion of toxin samples was performed by a pressurized bath perfusion system BPS-8 (ALA scientific instruments, NY) with 8 separate channels.
Off-line data analysis was performed with pClamp6 analysis software and Origin 5.0. Maximal unitary channel currents were determined via Guassian fits to the peaks of all points amplitude histograms generated from records containing 1–3 channels. […] Some of these records were analyzed by determining all of the step-like changes in current during the pressure application and selecting the average maximal current level as the unitary current. The data analyzed by this method was in good agreement with the unitary current levels determined by analysis of all points amplitude histograms from single channel patches.
The outside out patches from adult astrocytes as described above were used for testing the HPLC fractions obtained in Example 1. The HPLC fractions were lyophilized, redissolved at a 1:1000 dilution and perfused onto outside out patches. […] The fraction containing the single peak in FIG. 1D was then tested for activity against SACs. […] The patch was held at −50 mV, and the pressure pulse is shown above the records.
The entire experiment is comprised of 60 pressure steps: steps 1–20 occur before GsMTx-4 application; steps 21–38 while GsMTx-4 is being perfused; steps 39–60 occur during washout. Each 500 ms pressure step was separated by 1.5 seconds at 0 pressure.
The association rate of the toxin was determined by applying GsMTx-4 to an outside-out patch while the channels were activated by stretch (FIG. 5). […]

synthetic: chemically synthesized GsMTx4 with a C-terminal phenylalanine, folded with GSH/GSSG (GCLEFWWKCNPNDDKCCRPKLKCSKLFKLCNFSF-NH2; disulfide (positions not given here); not fully specified (bridges); also: three intramolecular disulfide bonds, pairing not given here)
block of mechanosensitive channels [1]: active in blocking SACs | block of mechanosensitive channels ([1]; listed as synthetic peptide): blocked

[Cl-].[Cs+] [CsCl, reference compound]
effect on whole-cell current in isotonic saline ([2]; CsCl, hyperpolarized potentials): significant decrease in current

cloned: GsMTx4 liberated by thrombin from a thioredoxin fusion protein, with three extra amino acids at the N-terminus (SGMGCLEFWWKCNPNDDKCCRPKLKCSKLFKLCNFSF; ends and bridges not checked; cysteine pairing not given here)
block of mechanosensitive channels [1]: blocked; also recorded: active in blocking SACs | block of mechanically sensitive current ([1]; outside-out patches held at −50 mV): greater than 75%

O=S(=O)(O)c1cc(N=C=S)ccc1C=Cc1ccc(N=C=S)cc1S(=O)(=O)O [DIDS, reference compound]
shift in reversal potential of swelling-activated current ([2]; 50 μM DIDS, average n=6): −33 mV | effect on swelling-activated current ([2]; 50 μM DIDS, especially at depolarized potentials): significant reduction in current

GCLEFWWKCNPNDDKCCRPKLKCSKLFKLCNFSSG (not fully specified (C-terminus); ends and bridges not checked; listed as Grammastola spatulata) [SEQ ID NO.1, 35 amino acids with C-term glycine amide]
SAC blocking activity [3]: has SAC blocking activity

Reference: patent US7125847B1, “Mechanically activated channel blocker” (priority 2000, dated 2006)
